# Measurements taken from patent publication US11583555B2, “Genetic re-engineering of immune cells to improve metabolic fitness for immunotherapy” (University of Pittsburgh—Of the Commonwealth System of …, priority 2016, dated 2023).
# Experiments:
# Format in all cases: in vivo
# Akt = Akt inhibitor treatment of B16-bearing mice, PGC1α levels and mitochondrial mass of CD8^+ T cells; conditions: short-term treatment (72 h)
# Protocol: FIGS. 11A-11H. Intratumoral T cell mitochondrial biogenesis is repressed by chronic Akt-mediated repression of PGC1α (A) Flow cytogram (left) and tabulated data (right) of PGC1α intracellular staining in CD8^+ T cells isolated from nondraining or draining LNs or TIL preparations from B16 or MC38 bearing mice. Shaded histogram indicates isotype control. (B) Flow cytogram of PGC1α expression in CTV-labeled, naïve OT-I T cells adoptively transferred into B16^OVA bearing mice for 72 h. Tabulation for multiple experiments is to the right. (C) Flow cytogram of cytokine production of congenically mismitached WT OT-I T cells transferred into B16^OVA-bearing or VV^OVA-infected mice for 96 h, then restimulated with SIINFEKL peptide. (D) Representative and tabulated phospho-Akt (S473) and phospho-Foxo1 (T24)/3a(T32) staining of the indicated cell populations in mice bearing 14-day B16 tumors. MFI is reported. (E) Representative flow cytogram and tabulated data indicating PGC1α staining in pAkt low or high cells. (F) MFI of pAkt staining in naïve OT-I T cells, or OT-I T cells transferred for 3 or 6 days into a B16^OVA-bearing or VV^OVA infected mouse. […] Results are representative of 5 (A,B, D) 3 (C, E, G, H) or 2 (F) independent experiments. *, p<0.05, **p<0.01, ***p<0.001 by unpaired t-test (A, F, G, H) or paired t-test (D, E, G, H). ***p<0.001 by two-way ANOVA. Error bars indicate s.e.m. […]
# [1] = tested on: tumor infiltrating T cells; test: m-divi-1 treatment of tumor-bearing mice after OT-I adoptive transfer, mitochondrial staining; conditions: tumor-bearing mice treated 24 h after adoptive transfer
# Protocol: FIGS. 5A-5E. T cell mitochondrial dysfunction is induced upon entry into the tumor microenvironment. (A) Representative flow cytogram and tabulated data of LN and TIL of naïve, CTV-labeled, OT-I (Thy 1.1^+) CD8^+ T cells transferred into B16^OVA-bearing mice (5-7 mm tumors), or the spleens of the same progenitor cells transferred into B6 mice infected with 1×10^6 PFU VV^OVA for 72 h. Cells were stained with MitoTracker Deep Red FM. (B) As in A, but with the mitochondrial membrane potential dye TMRE. (C) As in A, but with the cellular ROS indicator DCFDA. (D) As in A, but cells were permeabilized and stained intracellularly for LC3B. (E) Representative data from experiments as in A, but some mice received mitophagy inhibitor m-divi-1. Results represent the mean of three or four independent experiments, with n=7-9 mice per group. **p<0.01, ***p<0.001, ***p<0.0001 by two-way ANOVA. Error bars indicate s.e.m.
# Single-cell metabolic capacity was assayed by flow cytometry. Specifically, 2-NBD-glucose (Cayman Chemical) and MitoTracker FM dyes (ThermoFisher) were utilized to assay the propensity of cells to take up glucose or generate intermediates via their mitochondria. […]
# As mitochondrial depolarization can lead to autophagy, it was determined whether mitophagy may be mediating the loss of mitochondria in tumor-infiltrating T cells.
# [2] = tested on: tumor-infiltrating Treg cells; test: Treg depletion with diphtheria toxin in B16-bearing Foxp3^DTR.GFP mice; conditions: 3 days diphtheria toxin
molecule,measurement,setting,value
"O=c1[nH]c2ccccc2n1C1CCN(Cc2ccc(-c3nc4cc5[nH]cnc5cc4nc3-c3ccccc3)cc2)CC1 [Akt inhibitor, Akt inhibitor VIII]",PGC1α and mitochondrial sufficiency (metabolically suppressive phenotype),Akt,partial rescue of the metabolically suppressive phenotype
COc1cc(-n2c(=S)[nH]c3ccccc3c2=O)c(Cl)cc1Cl [m-divi-1],mitochondrial staining in tumor infiltrating T cells,[1],failed to improve mitochondrial staining
diphtheria toxin,CD8^+ T cell MitoTracker FM staining,[2],no significant increases in CD8^+ T cell MitoTracker FM staining
same,depletion of tumor-infiltrating Treg cells,[2],near complete depletion of tumor-infiltrating Treg cells
